From PMC8184619 (Molecular immunology, 2021)

What was measured:
Type in all cases: cell-based
[1] = tested on: R6C12 TCR-transduced CD8+ Jurkat T cells
[2] = tested on: T4H2 TCR-transduced CD8+ Jurkat T cells
[3] = tested on: SILv44 TCR-transduced CD8+ Jurkat T cells

**Q.** With CC[C@H](C)[C@H](N)C(=O)N[C@@H](CC(C)C)C(=O)N[C@@H](CC(=O)O)C(=O)N[C@@H](CCC(N)=O)C(=O)N[C@H](C(=O)N1CCC[C@H]1C(=O)N[C@@H](Cc1ccccc1)C(=O)N[C@@H](CO)C(=O)N[C@H](C(=O)O)C(C)C)C(C)C [T2Leu] as the compound, how does the EC50 [1] read?
**A.** 11000 ± 3000 nM

**Q.** And the EC50 [2]?
**A.** 300 ± 100 nM

**Q.** And the EC50 [3]?
**A.** 1400 ± 300 nM
